Reference: a melting point compilation (Tetko et al.; mined from patent text by program, amines drawn as free bases though some values may be those of a salt)

Structure (SMILES)	melting point
CC1(C)[C@H](C=C(Cl)Cl)[C@@H]1C(=O)OCc1cccc(-c2ccc(Br)o2)c1 (relative stereo)	76.5 to 77 °C
CC(C)Oc1ccc(OCc2ccccc2)cc1-c1nc2ccc(C#N)nc2[nH]1	214 to 215 °C
COc1ccc(S(=O)(=O)C2(C(=O)O)CCN(Cc3ccc(-c4ccccn4)cc3)CC2)cc1	217 °C
COc1cnnc(O)c1	253 to 255 °C
COc1cccc(CNC(=O)c2nc3cccc(OCCc4ccc(C(=O)O)cc4)c3c(=O)[nH]2)c1	228 to 230 °C
COC(=O)C(Oc1cc(OCc2ccc3ncoc3c2)ccc1C#N)c1ccccc1Cl (racemic)	157 to 159 °C
CC(C)(C)CCNC(=O)CN1C(=O)C2(COc3cc4c(cc32)CCO4)c2ccccc21 (stereo unspecified)	161 to 163 °C
COc1cc(C(O)CCCc2ccccc2)ccc1OCc1ccccc1 (stereo unspecified)	71 to 73 °C
O=C(Nc1nc(-c2ccoc2)c(C(=O)C2CCOCC2)s1)c1ccnc(Cl)c1	202 to 204 °C
N#CC(Cc1c[nH]cn1)(c1ccccc1)c1ccc(Cl)cc1 (stereo unspecified)	135 to 136 °C
CSc1nc2cc(-c3cccnc3)cc(N)n2n1	161 to 163 °C
O=C1Cc2cc(-c3cnc4[nH]c(=O)n(CC5CCCCC5)c4n3)ccc2N1	313 to 316 °C
CC(C)Oc1ccccc1CN1CCC(=O)C(C(c2ccc(F)cc2)c2ccc(F)cc2)C1 (stereo unspecified)	155 to 156 °C
CCOC(=O)C1=C(C)Nc2nc(N3CCOCC3)nc(N3CCOCC3)c2C1c1ccccc1 (stereo unspecified)	178 °C
CCCCCCCCCCCC1Cc2cc(C(=O)O)ccc2N1 (racemic)	99 to 103 °C
CC(C)(c1cc(Cl)cc([N+](=O)[O-])c1O)c1cc(Cl)cc([N+](=O)[O-])c1O	188 °C
O=C1N[C@H](Cc2cccc(C(F)(F)F)c2)[C@H](c2ccc(F)cc2)O1 (racemic)	177 to 178 °C
COCOCc1nc(-c2ccccc2)oc1COc1ccc(OCc2nc(-c3ccccc3)oc2C)cc1	74 to 75 °C
CCOC(=O)c1cn(-c2nccs2)c2nc(N3CCC(NC(=O)[C@H](C)NC(=O)OC(C)(C)C)C3)ccc2c1=O (stereo partly specified)	138 to 140 °C
O=C1N(N2CCCCC2)c2ccccc2C1(Cc1ccccc1)c1ccccc1 (stereo unspecified)	114 to 116 °C
COc1ccc2c(c1O)C13CCN(C)C(C2)C1CC(C)C(=O)C3 (stereo unspecified)	166 to 167 °C
CCc1cccc(CC(=O)O)c1OCCCc1cc(OC(C)C)nn1Cc1ccc(Cl)cc1Cl	98 to 99 °C
C#CCOc1nc(Nc2cc(N)cc(C(=O)OC)c2)ncc1Br	208 to 209 °C
N#Cc1c[nH]c2c(NS(=O)(=O)c3ccc(N)nc3)cccc12	> 300 °C
NC(=O)c1c(OCc2ccccc2)ccc2ccccc12	153 to 154 °C
O=C(Cc1ccc(Cl)nc1)Nc1ccccn1	130 °C

Structure (SMILES)	melting point
O=[N+]([O-])c1cccnc1NCc1ccc(Cl)cc1	95 to 96 °C
CC(C)(C)OC(=O)C(C)(C)N1COC(CCl)=C(c2ccccc2)C1=O	128 to 129 °C
CCn1c(=O)sc2cc([N+](=O)[O-])ccc21	200 to 203 °C
Cn1cc(C(=O)NCc2ccc(Cl)cc2)c(=O)c2cc(CN3CCOCC3)cc(F)c21	187 to 189 °C
CC(C)Oc1ccccc1-c1ncc(C#N)c(=O)[nH]1	182 to 184 °C
COC1(C2=NCCN2)COc2c(F)cccc2O1 (stereo unspecified)	> 260 °C
O=C1C(=O)N2c3c(cc(Cl)cc31)CCC2c1ccccc1 (stereo unspecified)	173 to 174 °C
CCc1cnc2ccnn2c1O	247 to 248 °C
O=C(O)COc1cccc2c1CCC(Cn1cc(C(c3ccccc3)c3ccccc3)ccc1=O)C2 (stereo unspecified)	162 to 163 °C
CCOC(=O)c1nc(-c2ccc(F)cc2)[nH]c1N=NN(C)C	177 °C
CC(C)(C)Cn1c(=O)c(=O)[nH]c2cc(Cl)c([N+](=O)[O-])cc21	270 to 271 °C
COc1ccc2c(c1)c1c3c(c(-c4ccccc4Cl)cc1n2CCCO)C(=O)NC3=O	228 to 230 °C
CC(=NO)c1ccc(C2=CCCCC2)cc1	154 to 156 °C
CCSc1cn(C)cc(-c2cc(C(F)(F)F)ccc2Cl)c1=O	127 to 129 °C
OCc1ccc(N(c2ccccc2)c2ccccc2)cc1	104 to 105 °C
O=c1c(-c2nc[nH]n2)coc2ccccc12	160 °C
COCCOc1cc2ncnc(NC3=CC(=O)C(Oc4ccccc4)=CC3=O)c2cc1OC	177 to 180 °C
COc1ccc([C@@H]2Sc3cc(Oc4ccc(F)cc4)ccc3NC(=O)[C@@H]2O)cc1F	222 to 224 °C
COc1cc2c(=O)c(S(=O)(=O)N(C)C)cn(C)c2cc1C	232 to 233 °C
O=C(O)c1cc(-c2ccccc2)cnc1Cl	239 to 240 °C
COc1ccc(C(=O)C(=O)c2ccccn2)cc1	97 to 98 °C
Nc1n[nH]c(-c2cc(Cl)nc(Cl)c2)n1	240 to 250 °C
Cc1cc(Cl)nc(Cl)c1N	83 to 85 °C
COc1ccc2[nH]nc(N3CCNCC3)c2c1	163 to 169 °C
COc1c(C2CCN(CCCCNC(=O)c3ccc(-c4ccc(C#N)cc4)cn3)CC2)ccc2c1CCCC2	140 °C
